Test results from ChEMBL document CHEMBL3763090, “A pharmacological perspective on the use of Brazilian Red Propolis and its isolated compounds against human diseases” (Eur J Med Chem, 2016).

Experiment: Antioxidant activity assessed as inhibition of linoleic acid oxidation at 90 ug/ml measured over 60 mins by beta-carotene bleaching test
Format: physicochemical
Conditions: 1 h

inhibition (INH): 39.5%
Compound: COc1ccc([C@@H]2COc3cc(O)ccc3C2)c(O)c1
